Laboratory results taken from patent EP2402358A2, “2',3'-Didehydro-3'-deoxy-4'-ethynylothymidine derivatives for treatment infections caused by human immunodeficiency virus (HIV) multidrug resistant strains, method of their synthesis and pharmaceutically acceptable forms of drugs” (priority 2010, dated 2012).
pEC50: −log10 of the molar value.

What was measured:
[1] = test system: Wild type HIV-1 (NL4-3 cytotropic strain, CXCR4 - tropic); assay: Determination of antiviral activity (beta-galactosidase reporter indicator cell line, deClPhR cell system), wild type virus; type: cell-based; conditions: Human immunodeficiency virus 1, NL43
Text: (§1) Determination of antiviral activity

[2] = Determination of cytotoxicity: Alamar Blue Cell Viability Assay; type: cell-based; conditions: deciphr cells
Text: (§2) Determination of cytotoxicity: Alamar Blue™ Cell Viability Assay
(§3) The Alamar Blue™ Cell Viability Assay (Invitrogen) is a fluorimetric metod for determining the number of viable cells. The Alamar Blue Reagent contains the cell permeable non-fluorescent blue dye resazurin, which is converted to the pink and fluorescent dye resorufin in response to the action of reductases located in the cytosol, mitochondria and endoplasmic reticulum. Therefore, only living cells will convert resazurin into resorufin. Assays are performed by adding 20 µL of the Alamar Blue Reagent directly to culture wells followed by a 6-hour incubation at 37°C. The fluorescent signal is monitored using 545 nm excitation wavelength and 590 nm emission wavelength. The quantity of resofurin product as measured by fluorescence is directly proportional to the number of living cells in culture, what allows to calculate CC50 value.

[3] = test system: HIV-1 virus strain Resistant 7005695; conditions: Resistance factor Rf=EC50 mutant / EC50 wt virus
Text: as §1
(§4) Fully infectious virus HIV-1 was produced from cloned proviral DNA reference coding either for wild-type HIV-1 or from drug-resistant virus following transfection of proviral DNA into recipient mammalian cells. Subsequent to viral protein expression and particle formation, culture supernatant was harvested and used to infect an indicator cell line. This latter cell line expresses all necessary receptors and co-receptors for HIV infection as well as the bacterial gene LacZ coding for β-galactosidase under the control of the HIV-1 long terminal repeat. In this system, amount of β-galactosidase is directly proportional to the extent of viral replication. Activity of β-galactosidase is assayed in presence of a colorless substrate which upon enzymatic conversion yields a yellow product absorbing at 405 nm. Next, variation in colorimetric readout in presence of test compounds was translated in percent viral inhibition following normalization according to absorbance values of positive (presence of anti-HIV drug) and negative (untreated) control wells included in each 96 well-plate. […] Percent inhibition data in function of drug concentration were processed by a statistical curve fitting software yielding a modeled curve from which EC50 was extrapolated.
(§5) Resistance factor Rf=EC50 mutant / EC50 wt virus

[4] = test system: HIV-1 virus strain Resistant QCR8; conditions: Resistance factor Rf=EC50 mutant / EC50 wt virus
Text: as §1, §4, §5

deClPhR™ cells = assay: Determination of cytotoxicity: Alamar Blue Cell Viability Assay; type: cell-based; conditions: Cytotoxicity; PNL4-3; deClPhR™ cells
Text: as §2, §3

SMILES | pEC50 [1] | CC50 ([2]; Cytotoxicity, PNL4-3, deClPhR™ cells) [nM] | Rf* [3] | Rf* [4] | CC50 ([2]; cytotoxicity in deClPhR™ cells) [nM] | CC50 (deClPhR™ cells) [nM]
C#C[C@@]1(CO)C=C[C@H](n2cc(C)c(=O)[nH]c2=O)O1 [4'-E-d4T (WA32), 2',3'-didehydro-3'-deoxy-4'-ethynylothymidine] | 7.05 | > 200000 | 17.3 | 1.4 | – | –
C#C[C@@]1(COC(=O)CCCCCCCCCCCCC)C=C[C@H](n2cc(C)c(=O)[nH]c2=O)O1 [WA37, 1-(2,3-dideoxy-2,3-didehydro-4-ethynyl-5-O-tetradodecanoyl-bb-D-ribofuranosyl)-thymine] | 7.27 | – | 23.7 | 1.3 | > 200000 | > 200000
C#C[C@@]1(COC(=O)CCCCCCCCCCCBr)C=C[C@H](n2cc(C)c(=O)[nH]c2=O)O1 [WA38, 1-(5-O-(12-bromododecanoyl)-2,3-dideoxy-2,3-didehydro-4-ethynyl-bb-D-ribofuranosyl)-thymine] | 6.89 | – | 10.4 | 1 | > 200000 | > 200000
C#C[C@@]1(COC(=O)CCCCCCCCCCCN=[N+]=[N-])C=C[C@H](n2cc(C)c(=O)[nH]c2=O)O1 [WA39, 1-(5-O-(12-azidododecanoyl)-2,3-dideoxy-2,3-didehydro-4-ethynyl-bb-D-ribofuranosyl)-thymine] | 7.14 | – | 12.2 | 0.8 | > 200000 | > 200000
C#C[C@@]1(COC(=O)CCCCCCCCCCCOC)C=C[C@H](n2cc(C)c(=O)[nH]c2=O)O1 [WA40, 1-(2,3-dideoxy-2,3-didehydro-4-ethynyl-5-O-(12-methoxydodecanoyl)-bb-D -ribofuranosy)-thymine] | 7.32 | – | 17.4 | 2.3 | > 200000 | > 200000
C#C[C@@]1(COC(=O)CCCCCCCCCCSCC)C=C[C@H](n2cc(C)c(=O)[nH]c2=O)O1 [WA42] | 7.37 | – | 16.1 | 2.3 | > 200000 | > 200000
